Assay [1] can be described thus: SOD activity (McCord and Fridovich). Format: biochemical. The conditions noted are these: In vitro Biochemistry. How it is done:
SOD activity can be monitored in the presence and absence of EDTA using the method of McCord and Fridovich (J. Biol. Chem. 244:6049 (1969)). The efficacy of a mimetic can be determined by measuring the effect of the mimetic on the growth of a SOD null E. coli strain versus a wild type strain. Specifically, wild type E. coli (AB1157) and SOD null E. coli. (JI132) can be grown in M9 medium containing 0.2% casamino acids and 0.2% glucose at pH 7.0 and 37° C.; growth can be monitored in terms of turbidity followed at 700 nm spectrophotometrically. Active mimetics can be tested for toxicity in mammalian cell culture by measuring lactate dehydrogenase (LDH) release. Specifically, rat L2 cells (a lung Type II like cell; (Kaighn and Douglas, J. Cell Biol. 59:106a (1973)) can be grown in Ham's F-12 medium with 10% fetal calf serum supplement at pH 7.4 and 37° C.; cells can be seeded at equal densities in 24 well culture dishes and grown to approximately 90% confluence; SOD mimetics can be added to the cells at log doses (eg micromolar doses in minimal essential medium (MEM)) and incubated for 24 hours. Toxicity can be assessed by morphology and by measuring the release of the cytosolic injury marker, LDH (eg on a thermokinetic plate reader), as described by Vassault (In: Methods of Enzymatic Analysis, Bergmeyer (ed) pp. 118-26 (1983); oxidation of NADH is measured at 340 nm). Efficacy of active mimetics can be assessed by determining their ability to protect mammalian cells against methylviologen (paraquat)-induced toxicity. Specifically, rat L2 cells grown as described above and seeded into 24 well dishes can be pre-incubated with various concentrations of the SOD mimetic and then incubated with a concentration of methylviologen previously shown to produce an LC75 in control L2 cells. Efficacy of the mimetic can be correlated with a decrease in the methylviologen-induced LDH release (St. Clair et al, FEBS Lett. 293:199 (1991)). The efficacy of SOD mimetics can be tested in vivo with mouse and/or rat models using both aerosol administration and parenteral injection. For example, male Balb/c mice can be randomized into 4 groups of 8 mice each to form a standard 2×2 contingency statistical model. Animals can be treated with either paraquat (40 mg/kg, ip) or saline and treated with SOD mimetic or vehicle control. Lung injury can be assessed 48 hours after paraquat treatment by analysis of bronchoalveolar lavage fluid (BALF) damage parameters (LDH, protein and % PMN) as previously described (Hampson et al, Tox. Appl. Pharm. 98:206 (1989); Day et al, J. Pharm. Methods 24:1 (1990)). […]
^2SOD activity determined as described by McCord and Fridovich, J. Biol. Chem. […] (1969).

A short description of assay [2]: Catalase activity, Clark oxygen electrode. It counts as biochemical. Particulars: 1 mM hydrogen peroxide; oxygen formation over 2 minutes. The text has this:
Catalase activity can be monitored by measuring absorbance at 240 nm in the presence of hydrogen peroxide (see Beers and Sizer, J. Biol. Chem. 195:133 (1952)) or by measuring oxygen evolution with a Clark oxygen electrode (Del Rio et al, Anal. Biochem. 80:409 (1977)). Peroxidase activity can be measured spectrophotometrically as previously described by Putter and Becker: Peroxidases. In: Methods of Enzymatic Analysis, H. U. Bergmeyer (ed.), Verlag Chemie, Weinheim, pp. 286-292 (1983. Aconitase activity can be measured as described in Example XI below.
Catalase activity was measured by means of a Clark oxygen electrode using a modified assay previously described by Del Rio et al, Anal. Biochem. 80:409 (1977). Briefly, reactions were performed in a nitrogen degassed phosphate buffer (50 mM, pH 7.8) containing 0.1 mM EDTA at 25° C. Three concentrations of hydrogen peroxide (1-4 mM) and four metalloporphyrin concentrations (0.5-50 μM) were used to determine second order rate constants. The rate of oxygen evolution was followed for 2 minutes.
^3Catalase activity determined as described by Del Rio et al, Anal. Biochem. 80:409 )1977). Metalloporphyrins were assayed at various concentrations in the presence of 1 mM hydrogen peroxide for catalase-like activity. A Clark electrode was used to measure the formation of oxygen from the breakdown of hydrogen peroxide over a period of 2 minutes.

The test system of assay [3] is rat cortical cells. The experiment in a line: Neurotoxicity (LDH release) in cortical cell culture. Format: cell-based. As for the experimental part:
(§1) Tissue culture: Mixed neuronal and glial cultures were prepared from embryonic day-18 rat cerebral cortices (Sprague-Dawley, Zivic Miller). Briefly, the cerebral cortices were dissected and enzymatically dissociated by incubation in Ca^++-, Mg^++-free Hank's balanced salt solution (HBSS) supplemented with 10 mM HEPES and 0.25% trypsin for 20 min. at 37° C. The tissue was rinsed and dispersed into single cell suspension by gentle passage through a fire polished Pasteur pipette. The cell suspension was centrifuged and resuspended in Minimum Essential Media (MEM), containing Earle's salts supplemented with 3 g/L glucose, 5% horse serum and 5% fetal bovine serum (growth media). The cells were plated in poly-D-lysine-coated multi-well plates: 12-well plates for aconitase measurement, and 24 well plates for toxicity experiments. Cells were maintained at 37° C. in a humidified incubator with 5% CO2/95% air in growth media. Media was not replaced so as to reduce glial overgrowth and neuronal loss. Mature cells (14-17 days in vitro) were used for all experiments.
(§2) Cell treatment: The growth media was replaced with MEM supplemented with 25 mM glucose (MEM-g). For both neurotoxicity studies and aconitase measurement, cells were incubated in the designated treatment for the indicated length of time at 37° C. Unless otherwise specified, antagonists or SOD-mimetics were added 15 min. prior to agonists. For measurement of neurotoxicity, cells were incubated with treatments for 18 hr at 37° C. in MEM-g. To access the ability of antagonists to inhibit acute NMDA toxicity or rescue cells from an ongoing NMDA insult, an alternate paradigm of NMDA treatment was used in addition to the one describe above. In this paradigm, growth media was replaced with HBSS^+ (Ca^++-, Mg^++-free Hank's Balanced Salt Solution supplemented with 2 mM CaCl2, 1 mM NaHCO3, 10 mM HEPES and 5 μM glycine), cells were treated with vehicle or 100 μM NMDA for 15 min. after which HBSS^+ was replaced with MEM-g and cells were returned to the incubator for 18 additional hrs. Antagonsists or SOD-mimetics were added to the cells 15 min. before NMDA exposure or 15, 30 or 60 min. following final media replacement. For determination of Ca^++-dependence, cells were incubated in HBSS^+ with no added Ca^++. When kainate (KA) was used as an agonist, 100 μM D-APV was routinely included to block secondary NMDA receptor activation. Catalase (100 U/ml) was always included when xanthine plus xanthine oxidase (X+XO) was used as a treatment to rule out the contribution of hydrogen peroxide.
Neurotoxicity studies: Neurotoxicity was determined by the measurement of LDH released in the supernatant media as previously described (Patel et al, Toxicol. Appl. Pharmacol. 115:124 (1991) and Neurotoxicology 14:35 (1992)). LDH was measured by the method of Vassault, Lactate dehydrogenase. In: Methods of Enzymatic Analysis, Bergmeyer HU (ed), Verlag Chemie, Weinheim, pp. 118-126 (1983). Additionally, cell death was confirmed with ethidium-1 homodimer (EthD-1). Briefly, the cells were washed with HBSS, loaded with 20 μM EthD-1 for 30 min,. rinsed and viewed through fluorescence optics. The number of dead cells labeled with EthD-1 were counted in 4-6 randomly selected fields, the numbers averaged to give an estimate of cell death and the experiment was repeated 3 times.

Assay [4] relates to aconitase. Kind of assay: Aconitase activity in cortical cell lysates. It counts as cell-based, rat. Particulars: 1 mM NOS inhibitor. As for the experimental part: as §1, §2
Aconitase measurement: For the measurement of aconitase, following treatment with agents, media was removed and cells lysed in ice-cold 50 mM, Tris/HCl, pH 7.4 containing 0.6 mM MnCl2, 1 mM L-cysteine, 1 mM citrate and 0.5% Triton-X 100. The aconitase activity of cell lysates was measured spectrophotometrically by monitoring the formation of cis-aconitate from isocitrate at 240 nm in 50 mM Tris/HCl, pH 7.4, containing 0.6 mM MnCl2 and 20 mM isocitrate at 25° C. (Kreb and Holzach, Biochem. J. 52:527 (1952); Gardner and Fridovich, J. Biol. Chem. 267:8757 (1992)). […] Aconitase activity in cortical cell lysates was inhibited by 0.1 mM potassium ferricyanide or by boiling of sample.

The subject of assay [5] is J774 macrophages. The experiment in a line: Mitochondrial respiration (MTT) in J774 macrophages. Format: cell-based. As for the experimental part:
(§3) Cell culture: J774 macrophages were cultured in DMEM medium, supplemented with L-glutamine (3.5 mmol/L) and 10% fetal calf serum. Cells were cultured in 96-well plates (200 μl medium/well) until confluence. To induce the inducible isoform of nitric oxide synthase (iNOS), fresh culture medium containing E. coli LPS (011:B4, 10 μg/ml) alone or in combination with murine γ-interferon (γ-IFN, 10 U/ml) was added in the presence or absence of the NOS inhibitor, the SOD mimetic of the combination of the two compounds for 24 h. Moreover, cells were exposed to the NO donor compounds S-nitroso-N-acetyl-DL-penicillamine (SNAP) (3 mM) and diethylamine:NO NONOate (DNO) (3 mM) for 24 h or to authentic peroxynitrite (1 mM) for 1 h). Nitride/nitrate concentration in the medium and mitochondrial respiration were then measured as described below.
Measurement of mitochondrial respiration: Cell respiration was assessed by the mitochondrial-dependent reduction of 3-(4,5-dimethylthiazol-2-yl)-2,5-diphenyltetrazolium bromide (MTT) to formazan. Cells in 96-well plates were incubated at 37° C. with MTT (0.2 mg/ml) for 1 hour. Culture medium was removed by aspiration and the cells were solubilized in DMSO (100 μl). The extent of reduction of MTT to formazan within cells was quantitated by the measurement of OD550. All measurements were corrected for the interference of MnTBAP at this wavelength.

Assay [6] has as its system J774 macrophages. The experiment in a line: Nitrite/nitrate production in J774 macrophages. It counts as cell-based. How it is done:
as §3
Measurement of nitrite/nitrate production: Nitride/nitrate production, an indicator of NO synthesis, was measured in the supernatant. First, nitrate in the culture medium was reduced to nitrite by incubation with nitrate reductase (670 mU/ml) and NADPH (160 μM) at room temperature for 2 h. After 2 h, nitrite concentration in the samples were measured by the Griess reaction, by adding 100 μl of Griess reagent (1% sulfanilamide and 0.1% naphthylethylenediamide in 5% phosphoric acid) to 100 μl samples of conditioned medium. The optical density at 550 nm (OD550) was measured using a Spectramax 250 microplate reader (Molecular Devices, Sunnyvale, Calif.) Nitrate concentrations were calculated by comparison with OD550 of standard solutions of sodium nitrate prepared in culture medium. All measurements were corrected for the interference of MnTBAP at this wavelength.

We go through 5 molecules from patent publication US6583132B1, “Oxidant scavengers” (Duke University, priority 1993, dated 2003).

Turning to “3,3′3″,3′″-Tetramethoxy-4,4′,4″,4′″-(porphine-5,10,15,20-tetrayl)tetrakis (benzoic acid) [Compound 10305]”, the SOD result in assay [1] is “inactive”. The same molecule came in with a Catalase in assay [2] of 2.2 min⁻¹.

With `CNC(=N)NCCC[C@H](N)C(=O)O` [L-NMA, N^G-methyl-L-arginine, reference compound], the “NMDA-induced LDH release” value in assay [3] (1 mM NOS inhibitor) is listed as “unchanged”. Further, the NMDA-induced aconitase inactivation result in assay [4] was “unchanged”. The “immunostimulation-induced suppression of mitochondrial respiration” value in assay [5] (LPS-treated and LPS and IFN-treated cells, 24 h) is recorded as “restoration of the respiration to an extent comparable with that of 300 μM MnTBAP”. The “change of inhibition of nitrite/nitrate accumulation when applied 6 h after LPS” value in assay [6] (LPS-stimulated macrophages) was “similar”. For the same molecule, the “inhibition of the production of NO” value in assay [6] (cells stimulated with LPS or LPS and IFN) is on record as “near-complete inhibition”.

For “Tetra (N,N-dimethyl) 4,4′,4″,4′″-(porphine-5,10,15,20-tetrayl)-tetrakis(benzamide) manganese (III) chloride [Compound 10109]”, the SOD in assay [1] was 470 μg/USOD. Also, in assay [2], the Catalase came to 0.59 min⁻¹.

For “Trimethyl 2,2′,2″, 2′″-tetrahydroxy-4-benzoic acid-4″, 4″, 4′″ (porphine -5,10,15,20-tetrayl)tribenzoate manganese (III) chloride [Compound 10303]”, the SOD in assay [1] is 78 μg/USOD. This molecule also showed a Catalase in assay [2] of 1.4 min⁻¹. In addition, the “protection against NMDA-induced excitotoxicity” value in assay [3] (NMDA 50 μM, 25 μM compound) is on record as 100%. Moreover, the “protection against kainate-induced excitotoxicity” value in assay [3] (kainate 300 μM, 100 μM compound) was 100%.

B1: IFN: murine γ-interferon (protein, UniProt P01580 23-155, looked up)
Interferon gamma: HGTVIESLESLNNYFNSSGIDVEEKSLFLDIWRNWQKDGDMKILQSQIISFYLRLFEVLKDNQAISNNISVIESHLITTFFSNSKAKKDAFMSIAKFEVNNPQVQRQAFNELIRVVHQLLPESSLRKRKRSRC
On to B1, for which the suppression of respiration in assay [5] (IFN alone, 10 U/ml) is on record as under 15%.
